Values after ≈ are worked out from the molar mass of the structure shown. Numbered stars: 1 amine (or outer) side, 2 acyl side, 3 side chain; on linkers, the order of the positions; unused ones are H or OH. Square brackets hold non-standard residues; d marks the D form. Peptide text beside a SMILES is read from it. X1 = C[C@H]1CCN([*:1])[C@@H]1C(=O)[*:2]; NMeF = CN[C@@H](Cc1ccccc1)C(=O)O; Hica(2S) = CC(C)C[C@H](O)C(=O)O; NMeL = CN[C@@H](CC(C)C)C(=O)O; NMeV = CN[C@H](C(=O)O)C(C)C; βAla = NCCC(=O)O
What was measured:
Artemia salina = assay: Toxicity in Artemia salina at 100 ug/ml; format: organism-based; settings: in vivo
Escherichia coli = assay: Antibacterial activity against Escherichia coli after 24 hrs; format: functional

SMILES | Activity (Artemia salina) | MIC (Escherichia coli)
CC(C)C[C@@H]1NC(=O)[C@H](C(C)C)N(C)C(=O)[C@H](Cc2ccc(O)cc2)NC(=O)[C@@H]2CCCN2C(=O)[C@H](CC(C)C)OC(=O)CCNC1=O (cyclo(L[βAla][Hica(2S)]PY[NMeV])) | Non-toxic | 64 µg/mL (≈ 95.3 µM)
CC(C)C[C@@H]1OC(=O)CCNC(=O)[C@H](Cc2ccccc2)N(C)C(=O)[C@H](C(C)C)N(C)C(=O)[C@H](Cc2ccccc2)NC(=O)[C@@H]2CCCN2C1=O (cyclo(F[NMeV][NMeF][βAla][Hica(2S)]P)) | Non-toxic | 
CC(C)C[C@@H]1OC(=O)CCNC(=O)[C@H](CC(C)C)N(C)C(=O)[C@H](C(C)C)N(C)C(=O)[C@H](Cc2ccc(O)cc2)NC(=O)[C@@H]2CCCN2C1=O (cyclo([Hica(2S)]PY[NMeV][NMeL][βAla])) | Non-toxic | 64 µg/mL (≈ 93.3 µM)
CC(C)C[C@@H]1OC(=O)CCNC(=O)[C@H](C(C)C)N(C)C(=O)[C@H](C(C)C)N(C)C(=O)[C@H](Cc2ccccc2)NC(=O)[C@@H]2CCCN2C1=O (cyclo(F[NMeV][NMeV][βAla][Hica(2S)]P)) | Non-toxic | 16 µg/mL (≈ 24.4 µM)
CC(C)C[C@@H]1OC(=O)CCNC(=O)[C@H](Cc2ccccc2)N(C)C(=O)[C@H](C(C)C)N(C)C(=O)[C@H](Cc2ccccc2)NC(=O)[C@@H]2[C@@H](C)CCN2C1=O (cyclo(F[NMeV][NMeF][βAla][Hica(2S)][X1])) | Non-toxic | 
CC(C)C[C@@H]1NC(=O)[C@H](C(C)C)N(C)C(=O)[C@H](Cc2ccccc2)NC(=O)[C@@H]2CCCN2C(=O)[C@H](CC(C)C)OC(=O)CCNC1=O (cyclo(F[NMeV]L[βAla][Hica(2S)]P)) | Non-toxic | 8 µg/mL (≈ 12.2 µM)
O=C(N[C@H](CO)[C@H](O)c1ccc([N+](=O)[O-])cc1)C(Cl)Cl [CHLORAMPHENICOL] |  | 4 µg/mL (≈ 12.4 µM)
